We go through 49 molecules from patent US9546172B2, “Pyrazolo[3,4-d]pyrimidine and pyrazolo[2,3-d]pyrimidine compounds as kinase inhibitors” (Pharmacyclics LLC, priority 2011, dated 2017).

Some results are limits rather than exact numbers.

For the experiment, the target named is T1, Btk (Homo sapiens, UniProt Q06187).
T1 construct: purified from insect cells as a full-length construct containing a N-terminal 6×-His tag; 6xHis (N); host or cells: insect cells (baculovirus Sf21 in Method B)
T1 sequence (Q06187 whole entry): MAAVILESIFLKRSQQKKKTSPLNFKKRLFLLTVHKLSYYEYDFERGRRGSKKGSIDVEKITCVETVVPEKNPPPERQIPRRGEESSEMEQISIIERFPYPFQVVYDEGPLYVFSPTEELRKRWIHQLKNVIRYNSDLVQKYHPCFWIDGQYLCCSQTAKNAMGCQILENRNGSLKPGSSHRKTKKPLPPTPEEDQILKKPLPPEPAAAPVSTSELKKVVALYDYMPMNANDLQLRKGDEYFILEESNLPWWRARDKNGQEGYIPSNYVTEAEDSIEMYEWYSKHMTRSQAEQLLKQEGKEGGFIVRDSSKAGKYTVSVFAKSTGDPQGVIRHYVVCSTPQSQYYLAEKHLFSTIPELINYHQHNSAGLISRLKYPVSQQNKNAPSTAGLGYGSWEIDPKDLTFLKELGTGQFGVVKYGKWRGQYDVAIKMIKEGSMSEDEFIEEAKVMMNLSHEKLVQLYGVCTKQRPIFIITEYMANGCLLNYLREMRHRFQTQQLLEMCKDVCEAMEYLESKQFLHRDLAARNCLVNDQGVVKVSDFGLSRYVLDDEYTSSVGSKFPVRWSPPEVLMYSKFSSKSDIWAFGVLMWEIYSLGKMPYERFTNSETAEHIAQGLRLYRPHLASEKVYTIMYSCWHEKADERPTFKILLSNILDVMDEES
In words: Btk in vitro inhibitory activity (one of Methods A, B, C). It counts as biochemical. The settings on record: determined in one of three in vitro assays (Examples 125-127). As to the method:
The Btk IC50s of compounds disclosed herein was determined in one of the three in vitro assays described in Examples 125-127.
Btk kinase activity was determined using a time-resolved fluorescence resonance energy transfer (TR-FRET) methodology. Measurements were performed in a reaction volume of 50 μL using 96-well assay plates. […] The reaction was quenched by the addition of 1.2 equivalents of EDTA (relative to divalent cation) in 25 μL of 1× Lance buffer (Perkin-Elmer). Streptavidin-APC (Perkin-Elmer) and Eu-labeled p-Tyr100 antibody (Perkin-Elmer) in 1× Lance buffer were added in a 25 μL volume to give final concentrations of 100 nM and 2.5 nM, respectively, and the mixture was allowed to incubate for one hour. The TR-FRET signal was measured on a multimode plate reader with an excitation wavelength (λEx) of 330 nm and detection wavelengths (λEm) of 615 and 665 nm. Activity was determined by the ratio of the fluorescence at 665 nm to that at 615 nm. For each compound, enzyme activity was measured at various concentrations of compound. Negative control reactions were performed in the absence of inhibitor in replicates of six, and two no-enzyme controls were used to determine baseline fluorescence levels Inhibition constants, Ki(app), were obtained using the program BatchKi (Kuzmic et al. (2000), Anal. Biochem. 286:45-50). IC50s were obtained according to the equation: IC50={Ki(app)/(1+[ATP]/Km^ATP)}+[E]total/2; For all kinases, [ATP]=Km^ATP, [Btk]total=0.5 nM and [Lck]total=6 nM.
Kinase activity is measured in vitro using electrophoretic mobility shift assay. The kinase reactions are assembled in a total volume of 25 μL in 384 well plates. […] The reaction is incubated for one hour and is quenched by the addition of 45 μL of termination buffer (100 mM HEPES, pH7.5, 0.01% Triton X-100, 30 mM EDTA). The terminated reactions are analyzed using 12 channel LabChip® 3000 microfluidic detection instrument (Caliper Life Sciences). The enzymatic phosphorylation of the peptide results in a change in net charge, enabling electrophoretic separation of product from substrate peptide. As substrate and product peptides are separated, two peaks of fluorescence are observed. Change in the relative fluorescence intensity of the substrate and product peaks is the parameter measured, reflecting enzyme activity. In the presence of an inhibitor, the ratio between product and substrate is altered: the signal of the product decreases, while the signal of the substrate increases.
Activity in each sample is determined as the product to sum ratio (PSR): P/(S+P), where P is the peak height of the product peptide and S is the peak height of the substrate peptide. For each compound, enzyme activity is measured at various concentrations (12 concentrations of compound spaced by 3× dilution intervals). Negative control samples (0%-inhibition in the absence of inhibitor) and positive control samples (100%-inhibition, in the presence of 20 mM EDTA) are assembled in replicates of four and are used to calculate %-inhibition values for each inhibitor at each concentration. Percent inhibition (Pinh) is determined using following equation: Pinh=(PSR0%−PSRinh)/(PSR0%−PSR100%)*100, where PSRinh is the product sum ratio in the presence of inhibitor, PSR0% is the average product sum ration in the absence of inhibitor and PSR100% is the average product sum ratio in 100%-inhibition control samples;
The IC50 values of inhibitors are determined by 4 parameter sigmoidal dose-response model fitting of the inhibition curves (Pinh versus inhibitor concentration) using XLfit 4 software.
Human Btk kinase (Genbank accession # NP_000052) was purified from insect cells as a full-length construct containing a N-terminal 6×-His tag. Btk kinase activity was determined using a radiometric filter binding assay. Measurements are performed in a low reaction volume 384-well assay plates. […]
Take `COc1cc(-c2nn(-c3cccc(N(C)C(=O)/C=C/CN(C)C)n3)c3ncnc(N)c23)ccc1C` [Example 30]: the half-inhibitory concentration (IC50) is < 100 nM.
Turning to `CN(C)C/C=C/C(=O)N(C)c1cccc(-n2nc(-c3ccc(Cl)cc3)c3c(N)ncnc32)n1` [Example 31], the IC50 was < 100 nM.
The value for `CN(C(=O)/C=C/CN(C)C1CC1)c1ccc(-n2nc(-c3ccc(Cl)cc3)c3c(N)ncnc32)cc1` [Example 32] was < 100 nM.
The value for `CCN(C/C=C/C(=O)N(C)c1ccc(-n2nc(-c3ccc(Cl)cc3)c3c(N)ncnc32)cc1)C1CC1` [Example 33] was < 100 nM.
The value for `CN(C(=O)/C=C/CN(C)C1CCC1)c1ccc(-n2nc(-c3ccc(Cl)cc3)c3c(N)ncnc32)cc1` [Example 34] was < 100 nM; that for `COc1cc(-c2nn(-c3cccc(NC(=O)/C=C/CN(C)C)c3)c3ncnc(N)c23)ccc1C` [Example 35] was < 100 nM.
With `C=CC(=O)N1CC[C@@H](n2nc(-c3ccc(Cl)cc3)c3c(N)ncnc32)C1` [Example 36], the IC50 was < 100 nM.
In the case of `C=CC(=O)N(C)c1cccc(-n2nc(-c3ccc(C)c(OC)c3)c3c(N)ncnc32)c1` [Example 37] it was < 100 nM.
In the case of `COc1cc(-c2nn(-c3cccc(N(C)C(=O)/C=C/CN(C)C)c3)c3ncnc(N)c23)ccc1C` [Example 38] it was < 100 nM; in that of `COc1cc(-c2nn(-c3ccc(N(C)C(=O)/C=C/CN(C)C4CCC4)cc3)c3ncnc(N)c23)ccc1C` [Example 40], < 100 nM; in that of `COCCOc1ccc(-n2nc(-c3ccc(C)c(OC)c3)c3c(N)ncnc32)cc1NC(=O)/C=C/CN(C)C` [Example 41], < 100 nM.
The value for `COc1cc(-c2nn(-c3cccc(N(C)C(=O)/C=C/CN4CCOCC4)c3)c3ncnc(N)c23)ccc1C` [Example 44] was < 100 nM; that for `COc1cc(-c2nn([C@@H]3CCCN(C(=O)/C=C/CN(C)C)C3)c3ncnc(N)c23)ccc1C` [Example 45] was < 100 nM.
With `CN(C)C/C=C/C(=O)N1CCC[C@@H](n2nc(-c3ccc(Cl)cc3)c3c(N)ncnc32)C1` [Example 46], the IC50 was < 100 nM.
In the case of `CN(C)C/C=C/C(=O)N1CCC(n2nc(-c3ccc(Cl)cc3)c3c(N)ncnc32)CC1` [Example 47] it was < 100 nM; in that of `COc1cc(-c2nn(CC3CCN(C(=O)/C=C/CN(C)C)CC3)c3ncnc(N)c23)ccc1C` [Example 48], < 100 nM; in that of `COc1cc(-c2nn(C[C@@H]3CCCN3C(=O)/C=C/CN(C)C)c3ncnc(N)c23)ccc1C` [Example 49], < 100 nM.
In the case of `COc1cc(-c2nn(C[C@H]3CCCN3C(=O)/C=C/CN(C)C)c3ncnc(N)c23)ccc1C` [Example 50] it was < 100 nM.
The value for `CN(C)C/C=C/C(=O)N(C)c1cc(-n2nc(-c3ccc(Cl)cc3)c3c(N)ncnc32)ccc1F` [Example 51] was < 100 nM; that for `COc1cc(-c2nn(-c3ccc(N(C)C(=O)/C=C/CN(C)C)c(Cl)c3)c3ncnc(N)c23)ccc1C` [Example 52] was < 100 nM; that for `COc1cc(-c2nn(C3CCN(C(=O)/C=C/CN(C)C)CC3)c3ncnc(N)c23)ccc1C` [Example 53] was < 100 nM.
Turning to `COc1cc(-c2nn([C@@H]3CCN(C(=O)/C=C/CN(C)C)C3)c3ncnc(N)c23)c(F)cc1C` [Example 54], the IC50 is < 100 nM.
The value for `COc1cc(-c2nn(-c3cccc(N(C)C(=O)/C=C/CN(C)C)c3)c3ncnc(N)c23)c(F)cc1C` [Example 55] was < 100 nM.
The value for `COc1cc(-c2nn(C3CCN(C(=O)/C=C/CN(C)C4CC4)CC3)c3ncnc(N)c23)ccc1C` [Example 57] was < 100 nM.
The value for `COc1cc(-c2nn([C@H]3CC[C@@H](NC(=O)/C=C/CN(C)C4CC4)CC3)c3ncnc(N)c23)ccc1C` [Example 59] was < 100 nM.
As for `COc1cc(-c2nn([C@@H]3CCN(C(=O)/C=C/CN(C)C4CC4)C3)c3ncnc(N)c23)ccc1C` [Example 60], the IC50 is < 100 nM.
In the case of `CN(C/C=C/C(=O)N1CC[C@@H](n2nc(-c3ccc(Cl)cc3)c3c(N)ncnc32)C1)C1CC1` [Example 61], the IC50 was < 100 nM.
Regarding `COc1cc(-c2nn(-c3ccc(N(C)C(=O)/C=C/CN(C)C)c(F)c3)c3ncnc(N)c23)ccc1C` [Example 62], the IC50 was < 100 nM.
In the case of `COc1cc(-c2nn(-c3ccc(F)c(N(C)C(=O)/C=C/CN(C)C)c3)c3ncnc(N)c23)ccc1C` [Example 63] it was < 100 nM.
Turning to `COc1cc(-c2nn(C3CN(C(=O)/C=C/CN(C)C)C3)c3ncnc(N)c23)ccc1C` [Example 64], the concentration for half-maximal inhibition (IC50) was < 100 nM.
In the case of `CN(C)C/C=C/C(=O)N1CC(n2nc(-c3ccc(Cl)cc3)c3c(N)ncnc32)C1` [Example 65] it was < 100 nM; in that of `CN(C/C=C/C(=O)N1CC(n2nc(-c3ccc(Cl)cc3)c3c(N)ncnc32)C1)C1CC1` [Example 66], < 100 nM; in that of `COc1cc(-c2nn(C3CN(C(=O)/C=C/CN(C)C4CC4)C3)c3ncnc(N)c23)ccc1C` [Example 67], < 100 nM.
The value for `COc1cc(-c2nn(-c3ccc(N(C)C(=O)/C=C/CN(C)C4CC4)c(F)c3)c3ncnc(N)c23)ccc1C` [Example 68] was < 100 nM.
The value for `CN(C(=O)/C=C/CN(C)C1CC1)c1cc(-n2nc(-c3ccc(Cl)cc3)c3c(N)ncnc32)ccc1F` [Example 69] was < 100 nM; that for `COCCOc1ccc(-n2nc(-c3ccc(C)c(OC)c3)c3c(N)ncnc32)cc1N(C)C(=O)/C=C/CN(C)C` [Example 70] was < 100 nM.
As for `COc1cc(-c2nn(C[C@H]3CCN(C(=O)/C=C/CN(C)C)C3)c3ncnc(N)c23)ccc1C` [Example 72], the 50% inhibitory concentration (IC50) was < 100 nM.
In the case of `COc1cc(-c2nn([C@H]3CC[C@@H](N(C)C(=O)/C=C/CN(C)C)CC3)c3ncnc(N)c23)ccc1C` [Example 73] it was < 100 nM; in that of `COc1cc(-c2nn(-c3ccc(F)c(N(C)C(=O)/C=C/CN(C)C4CC4)c3)c3ncnc(N)c23)ccc1C` [Example 76], < 100 nM.
The value for `COc1cc(-c2nn(-c3ccc(OCC(C)(C)O)c(N(C)C(=O)/C=C/CN(C)C)c3)c3ncnc(N)c23)ccc1C` [Example 77] was < 100 nM; that for `C=CC(=O)N1CCC(n2nc(-c3ccc(C)c(OC)c3)c3c(N)ncnc32)CC1` [Example 78] was < 100 nM; that for `C=CC(=O)N1CC(n2nc(-c3ccc(C)c(OC)c3)c3c(N)ncnc32)C1` [Example 79] was < 100 nM.
Regarding `C=CC(=O)N1CCC(n2nc(-c3ccc(Cl)cc3)c3c(N)ncnc32)CC1` [Example 80], the IC50 was < 100 nM.
In the case of `C=CC(=O)N1CC(n2nc(-c3ccc(Cl)cc3)c3c(N)ncnc32)C1` [Example 81] it was < 100 nM; in that of `COc1cc(-c2nn(-c3ccc(N(C)S(=O)(=O)/C=C/CN(C)C)cc3)c3ncnc(N)c23)ccc1C` [Example 82], < 100 nM; in that of `C=CC(=O)N1CC[C@@H](n2nc(-c3ccc(C)c(OC)c3)c3c(N)ncnc32)C1` [Example 83], < 100 nM.
The value for `C=CC(=O)N1CCC[C@@H](n2nc(-c3ccc(C)c(OC)c3)c3c(N)ncnc32)C1` [Example 84] was < 100 nM; that for `C=CC(=O)N1CCC[C@@H](n2nc(-c3ccc(Cl)cc3)c3c(N)ncnc32)C1` [Example 85] was < 100 nM; that for `C=CC(=O)N1CC[C@@H](n2nc(-c3ccc(F)c(OC)c3)c3c(N)ncnc32)C1` [Example 85b] was < 100 nM.

As a reminder, the IC50 is the concentration at which inhibition is half-maximal. Low values mean higher potency, high ones lower potency.
